Structures can show the parent of a compound that is named as a salt.
Tests used:
[1] = biological target: PDE 4 (phosphodiesterase IV); experiment: PDE 4 inhibiting effect (3H-cAMP hydrolysis, PDE 4 active fraction from Balb/c mouse liver); assay type: biochemical; settings: PDE 4 fraction from Balb/c mice liver, 0.064 μM cAMP, 2 hours at 25° C.; read-out: PDE4 IC50
Outline: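 PDE4 was taken from the soluble liver fraction of male Balb/c mice (12 weeks), purified on DEAE sepharose with a sodium acetate gradient. Inhibition was measured as hydrolysis of 3H-cAMP. The reaction was followed by Sephadex-QAE treatment in HEPES-Na pH 7.0.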

[2] = biological target: PDE 7 (phosphodiesterase VII) (Homo sapiens (Human), UniProt Q13946); experiment: PDE 7 inhibiting effect (3H-cAMP hydrolysis, PDE 7 active fraction from MOLT-4 cells); assay type: biochemical; settings: PDE 7 fraction from MOLT-4 cells, 0.064 μM cAMP, 10 μM rolipram, 2 hours at 25° C.; read-out: PDE7 IC50
Sequence of PDE 7 (phosphodiesterase VII) (Q13946 whole entry): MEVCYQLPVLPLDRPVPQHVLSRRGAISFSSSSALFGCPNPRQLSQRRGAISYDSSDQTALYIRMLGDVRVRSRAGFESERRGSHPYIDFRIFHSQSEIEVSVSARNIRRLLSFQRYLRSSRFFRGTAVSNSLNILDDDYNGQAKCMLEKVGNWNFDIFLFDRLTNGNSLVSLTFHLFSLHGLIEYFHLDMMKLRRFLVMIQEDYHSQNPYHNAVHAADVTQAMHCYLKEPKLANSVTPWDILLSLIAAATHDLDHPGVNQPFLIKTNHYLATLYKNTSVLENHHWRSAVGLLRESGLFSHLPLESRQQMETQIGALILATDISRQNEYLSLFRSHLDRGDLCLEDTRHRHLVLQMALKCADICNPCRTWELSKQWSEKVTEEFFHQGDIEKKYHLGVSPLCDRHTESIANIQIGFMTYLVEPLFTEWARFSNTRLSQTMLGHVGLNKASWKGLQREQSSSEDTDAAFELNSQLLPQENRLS
Outline: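 PDE7 taken from the soluble fraction of human MOLT-4 T cells (homogenised in pH 7.5 Tris buffer, 100,000×G spin), partially purified on HiTrap Q with a 0–0.8 M NaCl gradient. Inhibition measured as ³H-cAMP hydrolysis, with product separated using Sephadex-QAE in 10 mM HEPES-Na pH 7.0.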

Row | SMILES | IC50 [1] [µM] | IC50 [2] [µM]
1 | Cc1nn(C2CCCCC2)c2sc(C(=O)N[C@H]3CC[C@H](C(=O)O)C3)cc12 [Example 227, (1S,3S)-3-{[(1-Cyclohexyl-3-methyl-1H-thieno[2,3-c]pyrazol-5-yl)-carbonyl]amino}cyclopentanecarboxylic acid] | 10 | 0.056
2 | Cc1nn(C2CCCCC2)c2sc(C(=O)NCCN3CCN(C)C(=O)C3=O)cc12 [Example 228, 1-Cyclohexyl-3-methyl-N-[2-(4-methyl-2,3-dioxo-1-piperazinyl)ethyl]-1H-thieno[2,3-c]pyrazole-5-carboxamide] | 5.8 | 0.051
3 | Cc1nn(C2CCCCC2)c2sc(C(=O)N[C@H]3CC[C@H](C(=O)N(C)C)C3)cc12 [Example 230, 1-Cyclohexyl-N-{(1S,3S)-3-[(dimethylamino)carbonyl]cyclopentyl}-3-methyl-1H-thieno[2,3-c]pyrazole-5-carboxamide HCl salt] | 7 | 0.023
4 | Cc1nn(C2CCCCC2)c2sc(C(=O)NC3CCN(C(=O)N(C)C)CC3)cc12 [Example 235, 1-Cyclohexyl-N-{1-[(dimethylamino)carbonyl]-4-piperidinyl}-3-methyl-1H-thieno[2,3-c]pyrazole-5-carboxamide] | 2.8 | 0.017
5 | Cc1nn(C2CCCCC2)c2sc(C(=O)N[C@H]3CC[C@H](C(=O)N4CCOCC4)CC3)cc12 [Example 236, 1-Cyclohexyl-3-methyl-N-[4-(4-morpholinylcarbonyl)cyclohexyl]-1H-thieno[2,3-c]pyrazole-5-carboxamide] | 2.7 | 0.02
6 | Cc1nn(C2CCCCC2)c2sc(C(=O)N[C@H]3CC[C@H](C(=O)N4CCC(O)CC4)CC3)cc12 [Example 239, 1-Cyclohexyl-N-{4-[(4-hydroxy-1-piperidinyl)carbonyl]cyclohexyl}-3-methyl-1H-thieno[2,3-c]pyrazole-5-carboxamide] | 2.6 | 0.015
7 | Cc1nn(C2CCCCC2)c2sc(C(=O)N[C@H]3CC[C@H](CN4C(=O)CNC4=O)CC3)cc12 [Example 247, 1-Cyclohexyl-N-{4-[(2,5-dioxo-1-imidazolidinyl)methyl]cyclohexyl}-3-methyl-1H-thieno[2,3-c]pyrazole-5-carboxamide] | 1.4 | 0.0065
8 | Cc1nn(C2CCOCC2)c2sc(C(=O)Nc3ccc(C(=O)N(C)C)cc3)cc12 [Example 255, N-{4-[(Dimethylamino)carbonyl]phenyl}-3-methyl-1 tetrahydro-2H-pyran-4-yl-1H-thieno[2,3-c]pyrazole-5-carboxamide] | 12 | 0.089
9 | Cc1nn(C2CCCCC2)c2sc(C(=O)Nc3ccc(N4CCNC4=O)nc3)cc12 [Example 256, 1-Cyclohexyl-3-methyl-N-[6-(2-oxo-1-imidazolidinyl)-3-pyridinyl]-1H-thieno[2,3-c]pyrazole-5-carboxamide] | 0.81 | 0.002
10 | Cc1nn(C2CCCCC2)c2sc(C(=O)N[C@H]3CC[C@H](CO)C3)cc12 [Example 257, 1-Cyclohexyl-N-[(1S,3S)-3-(hydroxymethyl)cyclopentyl]-3-methyl-1H-thieno[2,3-c]pyrazole-5-carboxamide] | 8.3 | 0.068
11 | Cc1nn(C2CCCCC2)c2sc(C(=O)N[C@H]3CC[C@H](CN4C(=O)CNC4=O)C3)cc12 [Example 258, 1-Cyclohexyl-N-{(1S,3S)-3-[(2,5-dioxo-1-imidazolidinyl)methyl]cyclopentyl}-3-methyl-1H-thieno[2,3-c]pyrazole-5-carboxamide] | 4.7 | 0.015
12 | Cc1nn(C2CCOCC2)c2sc(C(=O)Nc3ccc(N4C(=O)CN(C)C4=O)cc3)cc12 [Example 260, 3-Methyl N-[4-(3-methyl-2,5-dioxo-1-imidazolidinyl)phenyl]-1-tetrahydro-2H-pyran-4-yl-1H-thieno[2,3-c]pyrazole-5-carboxamide] | 4.5 | 0.037
13 | Cc1nn(C2CCOCC2)c2sc(C(=O)Nc3ccc(N4CCNC4=O)nc3)cc12 [Example 261] | 1.9 | 0.028
